{"source": "patent US20200345747A1", "about": "“USE OF […] THE TREATMENT OF HEMOLYTIC UREMIC SYNDROME” (priority 2017, published 2020)", "key": {"[1]": {"conditions": "off-label, doses 10 times lower than the standard dosage; cited from earlier work"}, "[2]": {"experiment": "Initial treatment of patients with atypical HUS (HUSa) with Fenoldopam", "assay_type": "in vivo, human"}, "[3]": {"biological_target": "dopamine receptor D1 (Homo sapiens, UniProt P21728)", "sequence (P21728 whole entry, species assumed)": "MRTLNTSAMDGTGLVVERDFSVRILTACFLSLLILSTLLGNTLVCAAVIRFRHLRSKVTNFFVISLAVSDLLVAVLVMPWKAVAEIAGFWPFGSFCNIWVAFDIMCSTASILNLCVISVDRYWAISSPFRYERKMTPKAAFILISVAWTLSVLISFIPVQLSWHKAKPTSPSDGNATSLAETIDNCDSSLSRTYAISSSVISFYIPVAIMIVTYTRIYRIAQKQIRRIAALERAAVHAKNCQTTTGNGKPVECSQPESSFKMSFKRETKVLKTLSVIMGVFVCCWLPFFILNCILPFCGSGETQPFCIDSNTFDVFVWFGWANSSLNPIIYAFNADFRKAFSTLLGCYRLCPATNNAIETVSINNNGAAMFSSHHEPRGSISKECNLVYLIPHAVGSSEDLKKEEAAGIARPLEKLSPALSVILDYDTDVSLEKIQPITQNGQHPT", "conditions": "cited from earlier work"}, "[4]": {"tested_on": "5HT1", "conditions": "cited from earlier work"}, "[5]": {"biological_target": "D2 (Homo sapiens, UniProt P14416)", "sequence (P14416 whole entry)": "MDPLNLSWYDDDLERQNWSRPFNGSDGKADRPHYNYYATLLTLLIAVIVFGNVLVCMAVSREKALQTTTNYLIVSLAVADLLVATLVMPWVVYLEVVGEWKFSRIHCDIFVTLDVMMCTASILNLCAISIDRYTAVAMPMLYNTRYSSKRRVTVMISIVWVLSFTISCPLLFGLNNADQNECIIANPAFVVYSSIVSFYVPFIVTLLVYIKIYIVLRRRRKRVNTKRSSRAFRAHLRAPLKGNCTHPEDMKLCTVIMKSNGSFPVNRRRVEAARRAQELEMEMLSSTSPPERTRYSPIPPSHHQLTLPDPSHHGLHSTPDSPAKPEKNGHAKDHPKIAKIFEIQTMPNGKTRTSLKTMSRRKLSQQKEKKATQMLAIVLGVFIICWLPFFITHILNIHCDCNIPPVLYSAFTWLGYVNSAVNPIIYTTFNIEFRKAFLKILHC", "conditions": "cited from earlier work"}, "[6]": {"tested_on": "alpha1", "conditions": "cited from earlier work"}, "[7]": {"tested_on": "5HT2", "conditions": "cited from earlier work"}, "[8]": {"tested_on": "α2 adrenergic receptors", "conditions": "cited from earlier work"}, "[9]": {"conditions": "human, in vivo"}, "[10]": {"tested_on": "muscarinic receptors", "conditions": "cited from earlier work"}}, "note": "Where a name gives a salt, the structure may show the parent alone.", "data": [{"smiles": "Oc1ccc(C2CNCCc3c2cc(O)c(O)c3Cl)cc1", "note": "(stereo not shown) [Fenoldopam, Fenoldopam mesylate]", "values": [{"measurement": "efficacy in acute renal failure", "setting": "[1]", "result": "contrasting efficacy results"}, {"measurement": "side effects in acute renal failure use", "setting": "[1]", "result": "without the observation of any side effects"}, {"measurement": "natural course of the disease", "setting": "[2]; three cases of HUSa initially treated, before anti-CS antibody", "result": "less aggressive"}, {"measurement": "overall outcome after subsequent specific treatment", "setting": "[2]; three cases of HUSa, pretreated before anti-CS antibody", "result": "complete relief without permanent injuries"}, {"measurement": "activity at dopamine receptor D1", "setting": "[3]", "result": "partial agonist"}, {"measurement": "affinity for 5HT1 receptors", "setting": "[4]", "result": "does not have any affinity"}, {"measurement": "affinity for D2 receptors", "setting": "[5]", "result": "does not have any affinity"}, {"measurement": "affinity for alpha1 receptors", "setting": "[6]", "result": "does not have any affinity"}, {"measurement": "affinity for 5HT2 receptors", "setting": "[7]", "result": "does not have any affinity"}, {"measurement": "affinity to α2 adrenergic receptors", "setting": "[8]", "result": "weak affinity"}, {"measurement": "levels of creatininemia versus control groups", "setting": "[9]", "result": "lower (compared with group 1) or equivalent (with group 2)"}, {"measurement": "mean days in dialysis", "setting": "[9]", "result": "0.3 (CI: 0-1.1) days"}, {"measurement": "neurological effects during the acute phase", "setting": "[9]", "result": "None"}, {"measurement": "permanent kidney or other damage", "setting": "[9]", "result": "None"}, {"measurement": "preservation of kidney function (subjects treated)", "setting": "[9]", "result": "10 of the 12"}, {"measurement": "reduction of the real resistive index, \"on\" versus \"off\" therapy", "setting": "[9]", "result": "−10.8", "unit": "%"}, {"measurement": "side effects attributable to treatment", "setting": "[9]", "result": "none"}, {"measurement": "subjects needing dialytic support during the acute phase of the disease", "setting": "[9]", "result": 17, "unit": "%"}, {"measurement": "affinity for muscarinic receptors", "setting": "[10]", "result": "does not have any affinity"}]}]}
